Here are results for one compound from patent publication US11517541B2, “Applications of spermidine and its derivatives” (GENEHEAL BIOTECHNOLOGY CO., LTD., priority 2017, dated 2022).

Each structure is given as a SMILES string. pIC50: −log10 of the molar value.

One assay addresses T1, PAICS (Homo sapiens, UniProt P22234).
T1 sequence (P22234 1-425): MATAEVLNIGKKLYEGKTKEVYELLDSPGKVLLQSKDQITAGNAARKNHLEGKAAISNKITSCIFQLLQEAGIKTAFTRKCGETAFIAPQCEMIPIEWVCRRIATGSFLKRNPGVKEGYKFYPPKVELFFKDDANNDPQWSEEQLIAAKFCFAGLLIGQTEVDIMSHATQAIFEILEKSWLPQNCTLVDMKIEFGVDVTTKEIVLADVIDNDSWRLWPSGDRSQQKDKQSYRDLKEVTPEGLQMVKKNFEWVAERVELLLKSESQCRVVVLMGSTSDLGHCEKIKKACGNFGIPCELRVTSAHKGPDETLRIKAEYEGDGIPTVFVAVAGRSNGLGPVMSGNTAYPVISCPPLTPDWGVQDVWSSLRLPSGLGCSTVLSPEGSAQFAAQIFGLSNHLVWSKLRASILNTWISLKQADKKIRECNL
The assay can be described thus: Inhibition of spermidine on PAICS activity (SAICAR accumulation). Particulars: biochemical enzyme activity experiments and cell biology experiments. The text has this: The accumulation of toxic compound SAICAR is reduced by inhibiting the activity of PAICS.

Another assay deals with oncogene myc. Put plainly: Inhibition of oncogene MYC expression (Western Blot). The assay is classed as cell-based. Particulars: FIG. 4. A general note: In western blotting, separated proteins are transferred to a membrane and probed.
Assay [1] has as its system lung cancer cell strain A549. The assay can be described thus: Cancer cell growth inhibition / cell viability. Particulars: Homo sapiens, after 48 hours of drug administration. It is filed as cell-based.
The test system of assay [2] is lung cancer cell strain H1299. Put plainly: Cancer cell growth inhibition / cell viability. It is filed as cell-based. To be noted: Homo sapiens, NCI-H1299, after 48 hours of drug administration.
For assay [3], the system named is lung cancer cell strain PC9. The assay can be described thus: Cancer cell growth inhibition / cell viability. It is filed as cell-based. Particulars: after 48 hours of drug administration.
Assay [4] has as its system breast cancer cell strain MD468. The assay can be described thus: Cancer cell growth inhibition / cell viability. To be noted: after 48 hours of drug administration. It is filed as cell-based.
In assay [5] the test system is breast cancer cell strain MD231. The assay can be described thus: Cancer cell growth inhibition / cell viability. It is filed as cell-based. Particulars: after 48 hours of drug administration.

Regarding `NCCCCNCCCN` [spermidine], the “inhibition of the accumulation of SAICAR” value on PAICS is given as “up to 68.98%”. In addition, in the assay with oncogene myc, the “expression of oncogene myc” value is reported as “significantly down-regulated”. In addition, the pIC50 (in general, −log10 of the IC50, conventionally taken in molar units) is 4.28 in assay [1]; 4.68 in assay [2]; 4.63 in assay [3]; 4.34 in assay [4]; 5.85 in assay [5].
